#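 Grown in 96-well plates, cells were treated for 48 hours with each compound at five concentrations. Insufficient inhibition: endpoint recorded as highest concentration tested. Abbreviation: GI50, concentration required for 50% inhibition of growth. TGI: total growth inhibition.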
# Tests used:
# Experiment in all cases: DTP human tumour cell line panel, 48 h
# [1] = test system: HT29 colon
# [2] = test system: NCI/ADR-RES ovarian
# [3] = test system: EKVX NSCLC
# [4] = test system: LOX IMVI melanoma
# [5] = test system: A498 renal
# [6] = test system: CAKI-1 renal
# [7] = test system: SNB-19 CNS
# [8] = test system: DU-145 prostate
# [9] = test system: SNB-75 CNS
# [10] = test system: HOP-62 NSCLC
# [11] = test system: MDA-MB-435
# [12] = test system: NCI-H522 lung
# [13] = test system: MDA-MB-231 breast
# [14] = test system: SF-295 CNS
# [15] = test system: HCC-2998 colon
# [16] = test system: HCT-116 colon
# [17] = test system: HL-60(TB) leukemia
# [18] = test system: CCRF-CEM leukemia
# [19] = test system: HCT-15 colon
# [20] = test system: SK-OV-3 ovarian
# [21] = test system: HS 578T breast
# [22] = test system: 786-0 renal
# [23] = test system: NCI-H460 lung
# [24] = test system: A549 NSCLC
# [25] = test system: KM12 colon
# [26] = test system: UACC-62 melanoma
# [27] = test system: NCI-H226 lung
# [28] = test system: NCI-H23 lung
# [29] = test system: SK-MEL-2 melanoma
compound,measurement,setting,value
Cc1ccc(C(=O)Nc2ccc(CNCCN3CCOCC3)c(C(F)(F)F)c2)cc1C#Cc1cnc2cccnn12,TGI,[1],5.99 µM
same,GI50,[2],2.17 µM
same,TGI,[2],7.47 µM
same,GI50,[3],3.12 µM
same,TGI,[3],10.7 µM
same,GI50,[4],0.515 µM
same,TGI,[4],1.87 µM
same,GI50,[5],1.94 µM
same,TGI,[5],4.28 µM
same,GI50,[6],2.9 µM
same,TGI,[6],7.23 µM
same,GI50,[7],3.11 µM
same,TGI,[7],9.73 µM
same,GI50,[8],2.92 µM
same,TGI,[8],8.19 µM
same,GI50,[9],0.0644 µM
same,TGI,[9],0.778 µM
same,GI50,[10],2.16 µM
same,TGI,[10],6.55 µM
same,GI50,[11],0.746 µM
same,TGI,[11],2.32 µM
same,GI50,[12],1.99 µM
same,TGI,[12],5.22 µM
same,GI50,[13],1.15 µM
same,TGI,[13],3.19 µM
same,GI50,[14],1.62 µM
same,TGI,[14],3.57 µM
same,GI50,[15],1.55 µM
same,TGI,[15],3.24 µM
same,GI50,[16],0.5 µM
same,TGI,[16],2.43 µM
same,GI50,[17],0.145 µM
same,TGI,[17],2.6 µM
same,GI50,[18],1.55 µM
same,TGI,[18],8.23 µM
same,GI50,[19],0.925 µM
same,TGI,[19],4.9 µM
same,GI50,[20],3.91 µM
same,TGI,[20],13.6 µM
same,GI50,[21],1.81 µM
same,TGI,[21],5.24 µM
same,GI50,[22],1.21 µM
same,TGI,[22],3.29 µM
same,GI50,[23],1.76 µM
same,TGI,[23],3.9 µM
same,GI50,[24],2.54 µM
same,TGI,[24],10.6 µM
same,GI50,[25],0.393 µM
same,TGI,[25],2.68 µM
same,GI50,[26],1.45 µM
same,TGI,[26],3.43 µM
same,GI50,[27],1.66 µM
same,TGI,[27],7.59 µM
same,GI50,[28],0.89 µM
same,TGI,[28],3.03 µM
same,GI50,[29],1.27 µM
same,TGI,[29],3.44 µM

# Reference: PubChem BioAssay (NCI)
